Assays:
[1] = test system: paclitaxel-resistant cell line HCT116/VM46; experiment: cells; assay type: cell-based; conditions: Homo sapiens, HCT-116/VM46, 72 h, read-out: Cytotoxicity Assay IC50
Protocol: Cytotoxicity was assessed in HCT-116 and line HCT116/VM46 human colon carcinoma cells by MTS (3-(4,5-dimethylthiazol-2-yl)-5-(3-carboxymethoxyphenyl)-2-(4-sulphenyl)-2H-tetrazolium, inner salt) assay as reported in T. L. Riss, el. al., "Comparison of MTT, XTT, and a novel tetrazolium compound MTS for in vitro proliferation and chemosensitivity assays.," Mol. Biol. Cell 3 (Suppl.):184a, 1992. Cells were plated at 4,000 cell/well in 96 well microliter plates and 24 hours later drugs were added and serial diluted. The cells were incubated at 37° for 72 hours at which time the tetrazolium dye, MTS at 333 μg/ml (final concentration), in combination with the electron coupling agent phenazine methosulfate at 25 μM (final concentration) was added. A dehydrogenase enzyme in live cells reduces the MTS to a form that absorbs light at […] which can be quantitated spectrophotometrically. The greater the absorbance the greater the number of live cells. The results are expressed as an IC50, which is the drug concentration required to inhibit cell proliferation (i.e. absorbance at 450 nm) to 50% of that of untreated control cells. The IC50 values for compounds evaluated in this assay are evaluated in Table I.

[2] = test system: human colon carcinoma cells HCT-116; experiment: MTS in vitro cytotoxicity assay, HCT-116; assay type: cell-based; conditions: 72 h exposure
Protocol: Cells were plated at 4,000 cell/well in 96 well microliter plates and 24 hours later drugs were added and serial diluted. […] The greater the absorbance the greater the number of live cells.

[3] = in vivo animal models; cited from earlier work

| Structure (SMILES) | IC50 [1] | IC50 [2] | antitumor activity (in words) [3] |
| --- | --- | --- | --- |
| CC(=O)O[C@@]12CO[C@@H]1C[C@@H]1OC(C)(C)O[C@H]3[C@H](O)C4=C(C)[C@@H](OC(=O)[C@H](O)[C@@H](NC(=O)c5ccccc5)c5ccccc5)C[C@@H]([C@@H](OC(=O)c5ccccc5)[C@H]2[C@@]13C)C4(C)C [Compound 7a, 10-Deacetyl-1-deoxy-9(R)-dihydropaclitaxel 7,9-acetonide] | 11.5 pM |  |  |
| CC(=O)O[C@@]12CO[C@@H]1C[C@@H]1OC(c3ccccc3)O[C@H]3[C@H](O)C4=C(C)[C@@H](OC(=O)[C@H](O)[C@@H](NC(=O)OC(C)(C)C)c5ccccc5)C[C@@H]([C@@H](OC(=O)c5ccccc5)[C@H]2[C@@]13C)C4(C)C (stereo partly drawn) [Compound 7b, 1-deoxy-9(R)-dihydrodocetaxel 7,9-benzylidene acetal] | 29.6 pM | 10.5 pM |  |
| CC(=O)O[C@@H]1C2=C(C)[C@@H](OC(=O)[C@H](O)[C@@H](NC(=O)OC(C)(C)C)c3ccccc3)C[C@@H]([C@@H](OC(=O)c3ccccc3)[C@@H]3[C@]4(OC(C)=O)CO[C@@H]4C[C@H](OC(C)=O)[C@@]3(C)[C@H]1OC(C)=O)C2(C)C [Compound 7c, 7,9,10-triacetyl-1-deoxy-9(R)-dihydrodocetaxel] | 21.8 pM |  |  |
| CC(=O)O[C@H]1C(=O)[C@@]2(C)[C@H]([C@H](OC(=O)c3ccccc3)[C@]3(O)C[C@H](OC(=O)[C@H](O)[C@@H](NC(=O)c4ccccc4)c4ccccc4)C(C)=C1C3(C)C)[C@]1(OC(C)=O)CO[C@@H]1C[C@@H]2O [paclitaxel] | 225 pM |  | excellent antitumor activity |

Source: patent US5739359A, “Methods for preparing 1-deoxy paclitaxels” (Virginia Tech Intellectual Properties, Inc., priority 1997, dated 1998)
